Measurements as given in US20140235445A1, “PESTICIDE COMPOSITIONS INCLUDING POLYMERIC ADJUVANTS” (priority 2009, published 2014).

Test system: fire ants
Experiment: fire ant kill test: time to death of all fire ants in a jar coated with dried insecticide composition
Type: in vivo
Description: In this example a series of commercially available insecticides were tested at various dilution levels and with and without a preferred copolymer, namely the AVAIL® copolymer previously described (a 40%-60% w/w aqueous composition of a saturated sodium salt of a maleic anhydride/itaconic acid copolymer in water). In each set of test runs, the selected insecticide was tested with a population of fire ants in order to determine the time required to kill the entire population.
In particular, in each test run 20 ml of the respective liquid insecticide composition was added to a mason jar and swirled around the inside bottom thereof. The liquid was then poured off and the remainder was allowed to dry on the inner jar surface, creating substantially a monomeric dried layer. The outside neck surface of the jar was then coated in talc, and the open end of the jar was placed into a fire ant nest. The talc coating prevented the aggressive fire ants from climbing the outer surface of the jar. A population of fire ants was thus established in each jar, and the jar was then topped with an apertured mason jar cap. The time to death of all of the fire ants was then recorded.
In each case, the recommended concentration of insecticide was prepared (recorded as “1×”), followed by dilutions with water to create the diluted compositions. Where copolymer was used, the copolymer was added to the insecticide with gentle mixing, at a level of 30 ml per gallon. If desired, lesser amounts of copolymer could be used, e.g., 20 ml per gallon.
In another series of tests, insecticides were tested with various copolymers having different ratios of maleic anhydride and itaconic acid moieties, and at different pH levels. In particular, respective copolymeric compositions were prepared made up ofpolymaleic acid, a 1:3 weight ratio of maleic anhydride to itaconic acid, a 1:1 weight ratio of maleic anhydride to itaconic acid, a 3:1 weight ratio of maleic anhydride to itaconic acid, and a 7:1 weight ratio of maleic anhydride to itaconic acid. Individual portions of each of these copolymers were then pH-modified using sodium hydroxide to provide, for each copolymer, portions with no pH adjustment, and with adjustment to pHs of 6, 7, and 8. These pH-modified test copolymers were then mixed with a 1/100× dilution of malathion at a level of 30 ml of copolymer per gallon of insecticide. Similarly, the same pH-adjusted copolymers were mixed with 1/20× water dilutions of permethrin, again at a level of 30 ml of copolymer per gallon of insecticide.
The test products were then used in the same fire ant kill experiment of Example 1, giving the data of Tables 2 and 3.

[1] = Table 1, insecticide at 1/10X dilution
[2] = Table 1, insecticide at 1/20X dilution, copolymer, where used, 30 ml per gallon
[3] = Table 1, insecticide at 1X (recommended concentration), time to kill entire fire ant population

With CC1(C)C(C=C(Cl)Cl)C1C(=O)OCc1cccc(Oc2ccccc2)c1 (centres unmarked) [permethrin, (3-phenoxyphenyl) methyl 3-(2,2-dichloroethenyl)-2,2-dimethyl-cyclopropane-1-carboxylate] the “TIME TO DEATH” value [1] was 5 min, the “TIME TO DEATH” value [2] was 20 min and the “TIME TO DEATH” value [3] was 5 min. For the same compound, the “TIME TO DEATH” value (Table 1, insecticide at ⅓X dilution) was 5 min.
With CCOP(=S)(OCC)Oc1cc(C)nc(C(C)C)n1 [Diazinon®] the “effect of the copolymer on kill time as compared with the insecticide itself” value (insecticide with copolymer vs insecticide alone) was “no decrease in kill times”.
CCOC(=O)CC(SP(=S)(OC)OC)C(=O)OCC (centres unmarked) [malathion, 2-(dimethoxyphosphinothioylthio) butanedioic acid diethyl ester] was tested, and the “TIME TO DEATH” value [1] was 2 min, the “TIME TO DEATH” value [2] was 5 min and the “TIME TO DEATH” value (Table 1, insecticide at 1/100X dilution, copolymer, where used, 30 ml per gallon) was 30 min. The “TIME TO DEATH” value [3] was 1 min and the “TIME TO DEATH” value (Table 2, 1/100X malathion, copolymer 30 ml per gallon, no pH adjustment (pH —)) was 14 min.
For Cc1c(COC(=O)[C@H]2[C@@H](/C=C(\Cl)C(F)(F)F)C2(C)C)cccc1-c1ccccc1 (stereo in doubt) [bifenthrin, (2-methyl-3-phenylphenyl) methyl (1S,3S)-3-[(Z)-2-chloro-3,3,3-trifluoroprop-1-enyl]-2,2-dimethylcyclopropane-1-carboxylate], the “TIME TO DEATH” value [2] was 15 min.
